Test results taken from ChEMBL document CHEMBL1201862, “PubChem BioAssay data set” (2004).
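96-well plates; 48 h exposure; 5 concentrations. Endpoints by linear interpolation between flanking doses. Not reached: highest tested concentration assigned. At the GI50, growth is halved.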 Calls of active or inactive are those of the source. Rule as the data show it: active = GI50 up to about 1.1 µM and inactive = higher.

Tests used:
Assay in all cases: inhibition of tumour cell growth, NCI panel, 48 h
[1] = system: 786-0
[2] = system: A498
[3] = system: A549
[4] = system: ACHN
[5] = system: BT-549
[6] = system: CAKI-1
[7] = system: CCRF-CEM
[8] = system: COLO 205
[9] = system: DU-145
[10] = system: EKVX
[11] = system: HCT-116
[12] = system: HCT-15
[13] = system: HL-60
[14] = system: HOP-62
[15] = system: HOP-92
[16] = system: HT-29
[17] = system: Hs-578T
[18] = system: IGROV-1
[19] = system: K562
[20] = system: KM12
[21] = system: LOX IMVI
[22] = system: M14
[23] = system: MDA-MB-231
[24] = system: MDA-MB-435
[25] = system: MDA-N
[26] = system: MOLT-4
[27] = system: Malme-3M
[28] = system: NCI-H226
[29] = system: NCI-H23
[30] = system: NCI-H460
[31] = system: NCI-H522
[32] = system: NCI/ADR-RES
[33] = system: OVCAR-3
[34] = system: OVCAR-4
[35] = system: OVCAR-5
[36] = system: OVCAR-8
[37] = system: PC-3
[38] = system: RPMI-8226
[39] = system: RXF 393
[40] = system: SF-268
[41] = system: SF-295
[42] = system: SF-539
[43] = system: SK-MEL-28
[44] = system: SK-MEL-2
[45] = system: SK-MEL-5
[46] = system: SK-OV-3
[47] = system: SN12C
[48] = system: SNB-19
[49] = system: SNB-75
[50] = system: SR
[51] = system: SW-620
[52] = system: T47D
[53] = system: TK-10
[54] = system: U-251
[55] = system: UACC-257
[56] = system: UACC-62
[57] = system: UO-31
[58] = system: HCC 2998
[59] = system: MCF7

Measured: GI50

CC(=O)/C=C1\Nc2ccccc2N\C1=C/C(C)=O
inactive: [1] 18.5 µM | [2] 27.2 µM | [3] 21.5 µM | [4] 22.6 µM | [5] 35 µM | [6] 60.8 µM | [7] 17.2 µM | [8] 23.2 µM | [9] 30 µM | [10] 27.5 µM | [11] 16.9 µM | [13] 23.9 µM | [14] 27.3 µM | [15] 24.4 µM | [16] 20.1 µM | [17] 29.9 µM | [18] 18.8 µM | [19] 26.6 µM | [20] 24 µM | [21] 24.5 µM | [22] 21.6 µM | [23] 22 µM | [24] 26.4 µM | [25] 29.9 µM | [26] 14.5 µM | [27] 23 µM | [28] 21.4 µM | [29] 31.2 µM | [30] 16.5 µM | [31] 11.1 µM | [32] 29 µM | [33] 17.5 µM | [34] 19 µM | [35] 28.8 µM | [36] 24.7 µM | [37] 37.9 µM | [38] 19.5 µM | [39] 19.1 µM | [40] 23.5 µM | [41] 26.5 µM | [42] 30.3 µM | [43] 41.7 µM | [44] 20.6 µM | [45] 16.8 µM | [46] 30.6 µM | [47] 25.7 µM | [48] 38.5 µM | [49] 26.9 µM | [50] 25.1 µM | [51] 35.7 µM | [52] 19.5 µM | [53] 19.4 µM | [54] 23.8 µM | [55] 20.3 µM | [56] 20.1 µM | [57] 36.6 µM
24.3 µM: [12]

O=c1[nH]cnc2cccc(Cl)c12
> 100 µM: [12]
inactive: [1] > 100 µM | [2] > 100 µM | [3] > 100 µM | [4] > 100 µM | [5] > 100 µM | [6] > 100 µM | [7] > 100 µM | [8] > 100 µM | [9] > 100 µM | [10] > 100 µM | [58] > 100 µM | [11] > 100 µM | [13] > 100 µM | [14] > 100 µM | [16] > 100 µM | [17] > 100 µM | [18] > 100 µM | [19] > 100 µM | [20] > 100 µM | [22] > 100 µM | [59] > 100 µM | [23] > 100 µM | [25] > 100 µM | [26] > 100 µM | [27] > 100 µM | [28] > 100 µM | [29] > 100 µM | [30] > 100 µM | [31] > 100 µM | [32] > 100 µM | [33] > 100 µM | [34] > 100 µM | [35] > 100 µM | [36] > 100 µM | [37] > 100 µM | [39] > 100 µM | [40] > 100 µM | [41] > 100 µM | [42] > 100 µM | [43] > 100 µM | [44] > 100 µM | [45] > 100 µM | [46] > 100 µM | [47] > 100 µM | [48] > 100 µM | [49] 65.2 µM | [50] > 100 µM | [51] > 100 µM | [52] > 100 µM | [53] > 100 µM | [54] > 100 µM | [55] > 100 µM | [56] > 100 µM | [57] > 100 µM

Cc1ccc2c(O)cc(-c3sc4ccccc4c3C)nc2n1
active: [57] 0.661 µM
17.7 µM: [12]
inactive: [1] 20.5 µM | [2] 22.4 µM | [3] 22.7 µM | [5] 16.9 µM | [6] 21.6 µM | [7] 23.9 µM | [8] 23.4 µM | [9] 22.9 µM | [10] 25.5 µM | [11] 20.1 µM | [14] 25.1 µM | [15] 4.46 µM | [16] 25.9 µM | [17] 19.9 µM | [18] 19.8 µM | [19] 27.1 µM | [20] 15.7 µM | [21] 21.8 µM | [22] 17.5 µM | [59] 41.7 µM | [23] 49.5 µM | [25] 13.2 µM | [26] 26.1 µM | [27] 16.7 µM | [28] 20.4 µM | [31] 16.4 µM | [32] 17.1 µM | [34] 19.1 µM | [35] 34 µM | [36] 25.2 µM | [38] 14.5 µM | [40] 21.6 µM | [41] 17.1 µM | [43] 19.1 µM | [44] 37 µM | [46] 21.7 µM | [47] 29 µM | [48] 29.9 µM | [49] 17.3 µM | [52] 14.5 µM | [53] 46.6 µM | [55] 32.3 µM | [56] 16.9 µM

O=C(OCC(OC(=O)c1ccccc1)C(OC(=O)c1ccccc1)C(OC(=O)c1ccccc1)c1cnn(-c2ccccc2)n1)c1ccccc1 (stereo not given)
> 100 µM: [12]
inactive: [1] > 100 µM | [2] > 100 µM | [3] > 100 µM | [4] > 100 µM | [5] > 100 µM | [6] > 100 µM | [7] > 100 µM | [8] > 100 µM | [9] > 100 µM | [10] > 100 µM | [58] > 100 µM | [11] > 100 µM | [13] > 100 µM | [14] > 100 µM | [15] > 100 µM | [16] > 100 µM | [17] > 100 µM | [18] > 100 µM | [19] > 100 µM | [20] > 100 µM | [21] > 100 µM | [22] > 100 µM | [59] > 100 µM | [24] > 100 µM | [25] > 100 µM | [26] > 100 µM | [27] > 100 µM | [28] > 100 µM | [29] > 100 µM | [30] > 100 µM | [31] > 100 µM | [32] > 100 µM | [33] > 100 µM | [34] > 100 µM | [35] > 100 µM | [36] > 100 µM | [38] > 100 µM | [39] > 100 µM | [40] > 100 µM | [41] > 100 µM | [42] > 100 µM | [43] > 100 µM | [45] > 100 µM | [46] > 100 µM | [47] > 100 µM | [48] > 100 µM | [50] > 100 µM | [51] > 100 µM | [52] > 100 µM | [53] > 100 µM | [55] > 100 µM | [56] > 100 µM | [57] > 100 µM

CCCCc1ccc(Nc2cc(=O)n(C)c(=O)[nH]2)cc1
93.1 µM: [12]
inactive: [1] > 100 µM | [2] > 100 µM | [3] > 100 µM | [4] > 100 µM | [5] > 100 µM | [6] > 100 µM | [8] > 100 µM | [10] > 100 µM | [58] > 100 µM | [11] 72.6 µM | [14] > 100 µM | [15] 26.7 µM | [16] > 100 µM | [17] > 100 µM | [18] > 100 µM | [19] 85.7 µM | [20] 49.4 µM | [21] 39.8 µM | [22] > 100 µM | [59] 22.9 µM | [23] 89.7 µM | [24] > 100 µM | [25] > 100 µM | [27] > 100 µM | [28] > 100 µM | [29] > 100 µM | [30] 32.2 µM | [31] > 100 µM | [32] 57.4 µM | [33] > 100 µM | [34] 32.8 µM | [35] > 100 µM | [36] 57 µM | [37] 91.2 µM | [38] > 100 µM | [39] > 100 µM | [40] 64.4 µM | [41] > 100 µM | [42] 84.3 µM | [43] > 100 µM | [44] > 100 µM | [45] > 100 µM | [46] > 100 µM | [47] > 100 µM | [48] 52.1 µM | [49] > 100 µM | [51] > 100 µM | [52] > 100 µM | [53] > 100 µM | [54] 54.3 µM | [55] > 100 µM | [56] > 100 µM | [57] > 100 µM
